pIC50: −log10 of the molar value.
Tests used:
[1] = test system: allogeneic mixed lymphocyte reaction; assay: Allogeneic mixed lymphocyte reaction; format: cell-based, mouse; conditions: Mus musculus, Lymphocyte; C57BL/6N spleen stimulator cells, BALB/c lymph node responder cells, 86 hours, BrdU
Procedure, shortened: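 Stimulators were C57BL/6N female spleen cells and responders BALB/c female peripheral lymph node mononuclear cells (mice 8-10 weeks old). Cells suspended at 2×10^6 cells/mL in RPMI 1640 with 10% FBS and antibiotics.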

HL 60 cells = assay: Proliferation inhibitory activity on hematologic neoplasm cells, HL60; format: cell-based; conditions: Homo sapiens, HL-60, 72 h; 3 days, Alamar Blue
[2] = test system: collagen-induced arthritis; assay: Collagen-induced arthritis inhibitory action; format: in vivo, mouse; conditions: DBA1 mice
Experimental: Bovine type II collagen suspended in Freund's complete adjuvant was intradermally administered to the base of tail of DBA1 male mice (7 weeks old, purchased from Charles River Laboratories Japan Inc.) on day 1 and day 21. Then, from day 28 when 50% of the mice developed arthritis, the test substances suspended in 0.5% hydroxypropylcellulose (HPC) were orally administered on consecutive days. Here, the efficacy was evaluated by scoring the arthritis. Specifically, for each paw, the degree of arthritis was evaluated according to: no symptoms: 0; redness or swelling of one joint: 1; redness or swelling for two or more joints: 2; redness or swelling over the entire paw: 3; and maximum redness or swelling over the entire paw: 4.

[3] = test system: Salmonella typhimurium TA98, TA100, TA1535, TA1537 and Escherichia coli WP2uvrA; assay: Ames test; format: cell-based; conditions: preincubation method, with or without S-9, up to 5000 μg/flat plate
Experimental: Using 5 strains of Salmonella typhimurium TA98, TA100, TA1535, TA1537 and Escherichia coli WP2uvrA, the test substances (Compound 4, Compound 19, Compound 22 and Compound 24) were tested for their mutagenesis according to a preincubation method.

U 937 cells = assay: Proliferation inhibitory activity on hematologic neoplasm cells, U937; format: cell-based; conditions: Homo sapiens, U-937, 72 h; 3 days, Alamar Blue

With `FC(F)c1nc2ccccc2n1-c1nc(N2CCOCC2)nc(N2CCOCC2)n1` [Compound 4, 2-(2-Difluoromethylbenzimidazol-1-yl)-4,6-dimorpholino-1,3,5-triazine] the pIC50 [1] was 6.66, the pIC50 (HL 60 cells) was 5.95 and the “arthritis score, difference versus control group” value ([2]; 50 mg/kg oral, after day 44 (conditions exacerbated after day 40)) was “no significant difference was recognized in comparison with the control group”. For the same compound, the “arthritis score, efficacy versus control group” value ([2]; 50 or 100 mg/kg oral, after day 30, Dunnett's test P<0.05) was “a statistically significant efficacy was recognized”, the “progression of collagen-induced arthritis (arthritis score)” value ([2]; oral on consecutive days from day 28) was “inhibited the progression of the collagen-induced arthritis in a dose-dependent manner” and the “mutagenesis (colony number of reverse mutation)” value [3] was “negative”. The pIC50 (U 937 cells) was 5.49.

From patent US8338414B2, “Immunosuppressive agent and anti-tumor agent comprising heterocyclic compound as active ingredient” (Zenyaku Kogyo KabushikiKaisha, priority 2005, dated 2012)
